Measurements taken from ChEMBL document CHEMBL1201862, “PubChem BioAssay data set” (2004).
Calls of active or inactive are those of the source.

Columns and labels:
[1] = OVCAR-3 cell viability loss – plate reader, dry powder samples, PAX8 inhibitor project, dose response (AID 743044); type: functional, cell-based
Paired box protein Pax-8 = Paired box protein Pax-8 (Homo sapiens, UniProt Q06710); assay: PAX8 transcriptional activity inhibition in RMG-I – RMG-I cells, luciferase, cherry-pick, dose response (AID 687027); type: functional, cell-based;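 further: luciferase reporter driven by Pax8 target thyroperoxidase promoter measured by SteadyGlo luminescence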
[2] = OVCAR8 cell viability loss – plate reader, dry powder samples, PAX8 project, dose response (AID 743197); type: functional, cell-based; details: OVCAR-8
[3] = IGROV1 cell killing – plate reader, dry powder samples, PAX8 inhibitor project, dose response (AID 743043); type: functional, cell-based; details: IGROV-1
[4] = THP-1 cell cytotoxicity, dose response, cytotoxicity control for non-replicating M. tuberculosis project (AID 489025); type: functional
[5] = target: T1, Histone-lysine N-methyltransferase NSD2 (Homo sapiens, UniProt O96028); type: biochemical
T1 sequence (O96028 whole entry): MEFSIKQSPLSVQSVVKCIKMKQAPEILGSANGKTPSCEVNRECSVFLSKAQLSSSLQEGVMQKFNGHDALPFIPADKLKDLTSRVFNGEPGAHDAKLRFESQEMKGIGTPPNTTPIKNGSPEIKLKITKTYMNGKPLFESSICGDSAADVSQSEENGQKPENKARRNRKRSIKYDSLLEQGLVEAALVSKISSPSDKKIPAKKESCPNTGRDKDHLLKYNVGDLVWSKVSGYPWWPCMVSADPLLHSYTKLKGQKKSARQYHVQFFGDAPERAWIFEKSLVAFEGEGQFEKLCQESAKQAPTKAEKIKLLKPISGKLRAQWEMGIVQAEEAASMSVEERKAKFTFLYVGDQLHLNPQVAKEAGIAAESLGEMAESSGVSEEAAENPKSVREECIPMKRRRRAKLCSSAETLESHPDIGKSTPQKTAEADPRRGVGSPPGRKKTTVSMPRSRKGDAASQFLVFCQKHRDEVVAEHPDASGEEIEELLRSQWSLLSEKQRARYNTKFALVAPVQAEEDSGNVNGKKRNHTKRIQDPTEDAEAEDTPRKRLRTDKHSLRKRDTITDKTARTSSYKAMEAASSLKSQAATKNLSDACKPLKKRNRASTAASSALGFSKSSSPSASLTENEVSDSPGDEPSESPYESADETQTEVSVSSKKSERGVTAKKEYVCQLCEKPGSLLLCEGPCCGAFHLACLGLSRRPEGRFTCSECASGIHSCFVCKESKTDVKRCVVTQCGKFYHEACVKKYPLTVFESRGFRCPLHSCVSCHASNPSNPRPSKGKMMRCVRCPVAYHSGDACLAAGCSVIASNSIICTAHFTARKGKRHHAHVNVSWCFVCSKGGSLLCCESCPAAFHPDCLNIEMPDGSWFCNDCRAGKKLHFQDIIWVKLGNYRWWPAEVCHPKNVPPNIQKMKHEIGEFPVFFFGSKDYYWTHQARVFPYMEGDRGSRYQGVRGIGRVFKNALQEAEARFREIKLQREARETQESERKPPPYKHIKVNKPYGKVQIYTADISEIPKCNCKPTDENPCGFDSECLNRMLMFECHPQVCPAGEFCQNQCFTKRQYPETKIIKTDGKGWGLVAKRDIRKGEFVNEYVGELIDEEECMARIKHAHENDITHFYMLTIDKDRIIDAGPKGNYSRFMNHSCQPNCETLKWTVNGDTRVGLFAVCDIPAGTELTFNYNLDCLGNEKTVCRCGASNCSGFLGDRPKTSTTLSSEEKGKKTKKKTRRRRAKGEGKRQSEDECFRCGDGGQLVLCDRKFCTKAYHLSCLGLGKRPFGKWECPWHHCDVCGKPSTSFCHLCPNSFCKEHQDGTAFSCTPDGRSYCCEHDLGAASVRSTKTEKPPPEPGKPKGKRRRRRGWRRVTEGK

Protein RecA = target: T2, Protein RecA (Mycobacterium tuberculosis, UniProt P9WHJ3); assay: Fluorescence Cell-Free Homogeneous Dose Retest to Identify Inhibitors of RecA-Intein Splicing Activity. [Related pubchem assays (depositor defined):AID2097, AID2223, AID489010, AID492950]; type: functional
T2 sequence (P9WHJ3 whole entry): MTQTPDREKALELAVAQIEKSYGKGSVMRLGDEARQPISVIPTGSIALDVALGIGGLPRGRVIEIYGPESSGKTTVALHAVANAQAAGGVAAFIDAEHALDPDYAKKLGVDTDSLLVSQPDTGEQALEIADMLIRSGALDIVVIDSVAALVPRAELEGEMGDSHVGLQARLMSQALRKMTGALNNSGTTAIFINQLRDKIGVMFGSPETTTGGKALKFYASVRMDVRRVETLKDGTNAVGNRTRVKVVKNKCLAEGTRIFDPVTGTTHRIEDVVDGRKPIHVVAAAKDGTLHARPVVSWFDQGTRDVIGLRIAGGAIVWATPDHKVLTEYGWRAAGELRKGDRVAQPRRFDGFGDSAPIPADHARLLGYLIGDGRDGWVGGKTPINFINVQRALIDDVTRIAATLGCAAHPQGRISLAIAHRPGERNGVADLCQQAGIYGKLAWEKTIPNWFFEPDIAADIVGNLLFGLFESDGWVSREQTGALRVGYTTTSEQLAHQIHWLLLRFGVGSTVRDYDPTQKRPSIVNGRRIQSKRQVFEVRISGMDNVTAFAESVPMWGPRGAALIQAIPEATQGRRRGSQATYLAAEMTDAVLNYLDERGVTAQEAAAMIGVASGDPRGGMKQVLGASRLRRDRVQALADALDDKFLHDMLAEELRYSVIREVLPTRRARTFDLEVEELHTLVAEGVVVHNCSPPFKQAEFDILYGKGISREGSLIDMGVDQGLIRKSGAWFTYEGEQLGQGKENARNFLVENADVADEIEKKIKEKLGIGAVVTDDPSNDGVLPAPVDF

[6] = target: T3, Replicative DNA helicase DnaB (Mycobacterium tuberculosis, UniProt P9WMR3); assay: DnaB intein splicing inhibitors, dose response, biochemical, cell-free fluorescence (AID 449749); type: functional
T3 sequence (P9WMR3 whole entry): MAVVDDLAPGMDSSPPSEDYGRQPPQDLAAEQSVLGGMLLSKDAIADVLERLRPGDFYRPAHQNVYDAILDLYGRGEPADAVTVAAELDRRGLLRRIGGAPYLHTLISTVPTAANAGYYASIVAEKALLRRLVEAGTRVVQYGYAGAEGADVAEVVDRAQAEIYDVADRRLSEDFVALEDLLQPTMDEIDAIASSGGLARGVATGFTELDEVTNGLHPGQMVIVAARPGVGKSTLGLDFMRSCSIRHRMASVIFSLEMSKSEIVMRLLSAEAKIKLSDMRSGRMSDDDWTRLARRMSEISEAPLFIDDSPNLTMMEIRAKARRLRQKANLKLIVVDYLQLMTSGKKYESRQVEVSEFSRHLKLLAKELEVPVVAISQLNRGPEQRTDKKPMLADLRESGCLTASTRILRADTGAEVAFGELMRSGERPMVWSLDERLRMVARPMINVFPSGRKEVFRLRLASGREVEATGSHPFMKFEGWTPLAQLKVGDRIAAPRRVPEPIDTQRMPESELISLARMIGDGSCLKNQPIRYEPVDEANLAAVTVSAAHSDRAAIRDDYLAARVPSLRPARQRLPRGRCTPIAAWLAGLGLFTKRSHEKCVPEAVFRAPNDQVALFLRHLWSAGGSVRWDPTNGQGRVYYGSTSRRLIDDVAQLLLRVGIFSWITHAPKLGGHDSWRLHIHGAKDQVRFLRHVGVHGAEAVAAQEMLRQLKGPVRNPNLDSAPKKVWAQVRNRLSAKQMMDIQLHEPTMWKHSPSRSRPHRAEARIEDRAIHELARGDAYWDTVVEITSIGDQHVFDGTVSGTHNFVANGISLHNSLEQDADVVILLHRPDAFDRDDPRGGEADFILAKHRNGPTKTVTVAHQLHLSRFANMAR

[7] = target: T4, Short transient receptor potential channel 4 (Mus musculus, UniProt Q9QUQ5); assay: block of DAMGO-driven TRPC4 calcium entry – cell-based, HEK293 TRPC4/mu-opioid, Fluo-4 calcium, dose response (AID 434942); type: functional;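 further: potency of inhibitors blocking the TRPC4 calcium response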
T4 sequence (Q9QUQ5 whole entry): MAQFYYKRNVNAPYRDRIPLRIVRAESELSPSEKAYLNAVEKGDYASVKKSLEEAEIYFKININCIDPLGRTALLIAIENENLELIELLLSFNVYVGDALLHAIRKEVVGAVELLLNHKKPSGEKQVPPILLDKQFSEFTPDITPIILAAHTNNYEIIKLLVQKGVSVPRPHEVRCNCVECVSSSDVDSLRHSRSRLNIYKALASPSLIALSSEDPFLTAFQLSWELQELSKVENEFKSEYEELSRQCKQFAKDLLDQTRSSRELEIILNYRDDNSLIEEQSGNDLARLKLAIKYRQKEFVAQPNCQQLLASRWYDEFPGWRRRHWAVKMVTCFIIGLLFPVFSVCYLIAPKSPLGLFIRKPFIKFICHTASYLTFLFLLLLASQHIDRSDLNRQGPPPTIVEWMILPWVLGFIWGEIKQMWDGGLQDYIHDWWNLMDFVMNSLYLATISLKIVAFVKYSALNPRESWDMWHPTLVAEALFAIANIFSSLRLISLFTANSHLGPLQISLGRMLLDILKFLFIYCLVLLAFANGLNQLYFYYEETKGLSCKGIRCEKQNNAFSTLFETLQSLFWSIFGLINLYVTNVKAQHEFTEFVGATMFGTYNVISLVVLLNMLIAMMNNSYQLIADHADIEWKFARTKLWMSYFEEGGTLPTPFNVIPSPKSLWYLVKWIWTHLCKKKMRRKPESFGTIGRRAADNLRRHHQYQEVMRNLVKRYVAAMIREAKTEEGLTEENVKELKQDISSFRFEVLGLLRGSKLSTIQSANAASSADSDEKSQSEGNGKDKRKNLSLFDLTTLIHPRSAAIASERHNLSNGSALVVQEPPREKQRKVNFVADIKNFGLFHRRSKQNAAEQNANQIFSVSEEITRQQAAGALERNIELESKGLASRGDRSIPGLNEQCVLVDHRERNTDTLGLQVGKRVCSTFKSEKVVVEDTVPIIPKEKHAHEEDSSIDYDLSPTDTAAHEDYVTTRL

Streptococcus = assay: GAS UMAA2166 growth inhibition – luminescence, BacTiterGlo, counter-screen for streptokinase expression inhibitor project, dose response (AID 1915); type: functional, organism-based;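 further: potency for reduction of bacterial viability or growth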
Streptokinase A = target: T5, Streptokinase A (Streptococcus pyogenes serotype M1, UniProt P10520); assay: viability-normalized secreted streptokinase activity reduction – plasminogen activation absorbance, OD405, dose response (AID 1914); type: functional, Streptococcus pyogenes M1 GAS;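 further: secreted streptokinase activity via plasminogen activation per viability signal from cell pellet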
T5 sequence (P10520 whole entry): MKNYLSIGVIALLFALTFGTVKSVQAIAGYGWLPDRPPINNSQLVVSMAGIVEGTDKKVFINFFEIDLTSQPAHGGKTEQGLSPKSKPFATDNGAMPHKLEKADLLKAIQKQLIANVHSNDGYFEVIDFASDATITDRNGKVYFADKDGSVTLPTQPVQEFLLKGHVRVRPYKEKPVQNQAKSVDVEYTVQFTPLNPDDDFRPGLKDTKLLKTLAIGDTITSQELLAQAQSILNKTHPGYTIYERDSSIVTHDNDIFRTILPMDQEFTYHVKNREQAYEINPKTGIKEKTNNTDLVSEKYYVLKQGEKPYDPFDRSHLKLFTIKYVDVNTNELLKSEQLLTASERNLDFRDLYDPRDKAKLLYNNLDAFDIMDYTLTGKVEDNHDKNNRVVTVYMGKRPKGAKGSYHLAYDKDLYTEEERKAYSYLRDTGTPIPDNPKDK

[8] = tested on: Streptococcus sp. 'group A'; assay: Streptococcus pyogenes SK(-)GAS viability under kanamycin – luminescence, BacTiterGlo, confirmation, counter-screen for streptokinase expression inhibitor project, dose response (AID 1900); type: functional, organism-based

Paired box protein Pax-8, sequence (Q06710 whole entry): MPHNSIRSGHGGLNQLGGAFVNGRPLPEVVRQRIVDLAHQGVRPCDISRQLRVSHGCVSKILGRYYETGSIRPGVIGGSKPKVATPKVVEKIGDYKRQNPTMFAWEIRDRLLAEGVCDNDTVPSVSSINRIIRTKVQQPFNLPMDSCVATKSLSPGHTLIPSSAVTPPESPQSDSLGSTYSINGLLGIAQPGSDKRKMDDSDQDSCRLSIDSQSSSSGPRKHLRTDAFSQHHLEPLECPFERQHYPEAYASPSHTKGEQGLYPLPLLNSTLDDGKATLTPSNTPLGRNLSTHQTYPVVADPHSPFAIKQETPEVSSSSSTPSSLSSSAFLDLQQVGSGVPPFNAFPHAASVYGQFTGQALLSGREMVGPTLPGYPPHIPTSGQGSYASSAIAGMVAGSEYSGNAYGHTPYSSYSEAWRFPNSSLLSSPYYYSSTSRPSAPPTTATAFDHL

C[C@@H]1CN([C@@H](C)CO)C(=O)c2cc(NC(=O)c3ccccc3)ccc2O[C@@H](C)CCCCO[C@@H]1CN(C)Cc1ccc(C(F)(F)F)cc1
AC50 [1]: 30.4 µM (active) | AC50 (Paired box protein Pax-8): 9.74 µM (active) | AC50 [2]: > 70 µM (inactive)

Cc1cccc(S(=O)(=O)N2CC[C@@H]3[C@H](CO)N(C)c4ccc(C#Cc5ccc(F)cc5)cc4[C@@H]32)c1
AC50 [3]: 41.8 µM (active) | AC50 (Paired box protein Pax-8): 8.27 µM (active) | AC50 [2]: > 60 µM (inactive)

Cc1nn(C)cc1/C=N/NC(=O)c1sc2ccccc2c1Cl
CC50 [4]: > 40 µM (active)

O=C(/C=C/c1ccco1)Nc1ccccc1C(=O)O
AC50 [5]: > 20 µM (inactive)

Cc1[nH]n(-c2ccccc2)c(=O)c1C(C[N+](=O)[O-])c1ccc(Cl)cc1 (centres undefined)
EC50 (Protein RecA): 3.22 µM (active) | AC50 [6]: 5.32 µM (active) | AC50 [5]: 9.52 µM (active)

CC(=O)Oc1ccc(/C=C(\NC(=O)c2ccco2)C(=O)NCc2ccccc2)cc1
EC50 [7]: 1.68 µM (active)

COc1cc2c(cc1OC)C(C)N(CCc1ccc(Cl)cc1)CC2 (centres undefined)
EC50 [7]: 0.105 µM (active)

C[C@H](CO)N1C[C@H](C)[C@H](CN(C)Cc2ccc(Cl)c(Cl)c2)OCCCC[C@H](C)Oc2ccc(NC(=O)Nc3ccc(C(F)(F)F)cc3)cc2C1=O
AC50 [3]: 43.1 µM (active) | AC50 (Paired box protein Pax-8): 5.3 µM (active) | AC50 [2]: 63 µM (active)

Cc1ccc(Cn2c(Cc3ccccc3)nc3ccccc32)cc1
EC50 (Streptococcus): 61.3 µM (active) | EC50 (Streptokinase A): > 150 µM (not active) | EC50 [7]: 0.668 µM (active) | EC50 [8]: 12.5 µM (active)

C[C@@H]1CCCCO[C@@H](CN(C)C(=O)Nc2cccc3ccccc23)[C@H](C)CN([C@H](C)CO)C(=O)c2cc(NS(=O)(=O)c3ccc(F)cc3)ccc2O1
AC50 [3]: 45.5 µM (active) | AC50 (Paired box protein Pax-8): 5.4 µM (active) | AC50 [2]: > 70 µM (inactive)

C=C(C)c1cccc(C(C)(C)NC(=O)NC2CN3CCC2CC3)c1 (centres undefined)
AC50 [5]: 15.6 µM (active)
